Measured values published in PMC7570844, “Skin Damages—Structure Activity Relationship of Benzimidazole Derivatives Bearing a 5-Membered Ring System” (Molecules, 2020).
Values after ≈ are worked out from the molar mass of the structure shown.

What was measured:
[1] = test system: Trichophyton mentagrophytes; assay: Antidermatophyte plaque growth inhibition; assay type: cell-based; conditions: T. mentagrophytes, 100 µg/mL, '+' has no key, read-out: Percent growth inhibition
[2] = test system: M. gypseum, M. canis, T. mentagrophytes, T. tonsurans and E. floccosum; assay: Antidermatophyte activity, all five dermatophytes taken together; assay type: cell-based; conditions: 100 µg/mL, all five dermatophytes; read-out: Percentage of growth inhibition over the five dermatophytes
[3] = test system: herpes simplex virus-1 TK-KOS ACVr; assay: microbe, parasite or virus in culture; assay type: cell-based; conditions: Human alphaherpesvirus 1, HEL, read-out: Antiviral EC50
[4] = test system: herpes simplex virus-1 (KOS); assay: Antiviral activity in HEL cell cultures (CPE, MTS); assay type: cell-based; conditions: Human alphaherpesvirus 1, HEL cells
Microsporum canis = assay: Antidermatophyte plaque growth inhibition; assay type: cell-based; conditions: M. canis, 100 µg/mL, '+' has no key, read-out: Percent growth inhibition
Microsporum gypseum = assay: Antidermatophyte plaque growth inhibition; assay type: cell-based; conditions: Nannizzia gypsea; M. gypseum, 100 µg/mL; '+' has no key; read-out: Percent growth inhibition
Epidermophyton floccosum = assay: Antidermatophyte plaque growth inhibition; assay type: cell-based; conditions: E. floccosum, 100 µg/mL, '+' has no key, read-out: Percent growth inhibition
[5] = test system: human pancreatic carcinoma cells (Mia Paca-2); assay: Cell proliferation inhibition
Adeno virus-2 = assay: Antiviral activity in HEL cell cultures (CPE, MTS); assay type: cell-based; conditions: Adeno virus-2, HEL cells
[6] = test system: Candida albicans (ATCC 10231); assay: Anti-Candida albicans broth microdilution MIC; conditions: Candida albicans, ATCC10231, 24 h
[7] = test system: human cervical carcinoma cells (HeLa); assay: Cell proliferation inhibition
Trichophyton tonsurans = assay: Antidermatophyte plaque growth inhibition; assay type: cell-based; conditions: T. tonsurans, 100 µg/mL, '+' has no key, read-out: Percent growth inhibition
[8] = test system: HEK293T (Normal Kidney Epithelial Cells); assay: Cell proliferation inhibition, non-cancer control cells; conditions: Homo sapiens, HEK-293T
vaccinia virus = assay: microbe, parasite or virus in culture; assay type: cell-based; conditions: Orthopoxvirus vaccinia, HEL, read-out: Antiviral EC50
[9] = test system: human melanoma cells (SK-Mel 5); assay: Cell proliferation inhibition
[10] = Ferric reducing antioxidant power (FRAP) test; conditions: mean ± SEM
[11] = DPPH radical scavenging test; conditions: mean ± SEM
Human Coronavirus (229E) = assay: microbe, parasite or virus in culture; assay type: cell-based; conditions: HEL, read-out: Antiviral EC50
[12] = test system: Respiratory syncytial virus; assay: microbe, parasite or virus in culture; assay type: cell-based; conditions: human respiratory syncytial virus, HeLa cells, read-out: Antiviral EC50
[13] = test system: vesicular stomatitis virus; assay: microbe, parasite or virus in culture; assay type: cell-based; conditions: HeLa, read-out: Antiviral EC50
Coxsackie virus B4 = assay: Antiviral activity in HeLa cell cultures (CPE, MTS); assay type: cell-based; conditions: Enterovirus B; Coxsackie virus B4, HeLa cells
[14] = test system: human embryonic lung (HEL) cell cultures
[15] = test system: herpes simplex virus-2 (G); assay: Antiviral activity in HEL cell cultures (CPE, MTS); assay type: cell-based; conditions: Human alphaherpesvirus 2; Herpes simplex virus-2, HEL cells
HeLa cell cultures = conditions: human
[16] = test system: human T-lymphocyte cells (CEM); assay: Cell proliferation inhibition
[17] = UV filtering parameters of compounds in solution (MeOH, 290-400 nm)

For `O=S(=O)(O)c1ccc2[nH]c(-c3ccc[nH]3)nc2c1` [Compound 7, 2-(1H-pyrrol-2-yl)-1H-benzimidazole-5-sulfonic Acid], the inhibition at 100 µg/mL [1] was 69 ± 1.84%, the inhibition at 100 µg/mL [2] was 50 to 79% and the EC50 [3] was > 100 µM. The EC50 [4] was > 100 µM, the inhibition at 100 µg/mL (Microsporum canis) was 72.1 ± 7.51% and the inhibition at 100 µg/mL (Microsporum gypseum) was 73 ± 3.67%. For the same molecule, the inhibition at 100 µg/mL (Epidermophyton floccosum) was 52.5 ± 6.58%, the IC50 [5] was 28 ± 10 µM and the EC50 (Adeno virus-2) was > 100 µM. For the same molecule, the MIC [6] was 64 µg/mL (≈ 243 µM), the IC50 [7] was > 100 µM and the inhibition at 100 µg/mL (Trichophyton tonsurans) was 56.6 ± 4.04%. The IC50 [8] was 67 ± 47 µM, the EC50 (vaccinia virus) was > 100 µM and the IC50 [9] was > 100 µM. The FRAP [10] was 239.91 ± 1.79 µmolTE/g, the “DPPH IC50” value [11] was 1093.09 ± 8.65 µg/mL and the EC50 (Human Coronavirus (229E)) was > 100 µM. For the same molecule, the EC50 [12] was > 100 µM, the EC50 [13] was > 100 µM and the EC50 (Coxsackie virus B4) was > 100 µM. The Cytotoxic concentration [14] was > 100 µM, the EC50 [15] was > 100 µM and the Cytotoxic concentration (HeLa cell cultures) was > 100 µM. The melting point was > 250 °C, the IC50 [16] was 31 ± 21 µM and the SPF [17] was 5.43±0.39. For the same molecule, the UVA/UVB [17] was 0.2, the UVAPF [17] was 1.22±0.03 and the “λc (critical wavelength)” value [17] was 345 nm.
